According to patent US12472177B2, “Bicyclic compounds and methods for their use in treating Pitt Hopkins syndrome” (NEUREN PHARMACEUTICALS LIMITED, priority 2019, dated 2025):

Key:
Tcf4^+/− mice [1] = test: Self grooming (repetitive behavior); format: in vivo, mouse; parameters: key to Self-Grooming/Repetitive Behavior: Tukey’s Multiple Comparison Test Summary: **** = p < 0.00001; ns = not significant
Method: (§1) In vivo behavioral studies were conducted in Tcf4^+/− mutant and wildtype littermate control (WT) mice by Gen.DDI (Santiago, Chile). Littermate controls consist of the genotypes Tcf4^+/+. All Tcf4 mutant mice used were heterozygous for the Tcf4 mutation because homozygous mutations of Tcf4 result in embryonic to postnatal day 1 lethality. Ten mice per treatment group, 14 weeks of age, were used for behavioral experiments. Experiments were conducted in line with the requirements of the UK Animals (Scientific Procedures) Act, 1986. The mice were housed in plastic cages (35×30×12 cm), 5 in each and habituated to the animal facilities for at least a week before commencing the test. The room temperature (21° C.±2° C.), relative humidity (55%±5%), a 12-hour light-dark cycle (lights on 7 AM to 7 PM), and air exchange were automatically controlled. The animals had free access to commercial food pellets and water. Testing was performed during the light phase of the circadian cycle, with the order of testing being determined by the principle of conducting the most stressful tests last. Assays were designed to reproduce and expand on the original behavioral characterization of Tcf4^+/− mice. Tcf4^+/− and WT control mice were treated for 6 weeks prior to testing and tested 30 minutes following a dose of cG-2-AllylP, as described in Table 2 below.
Repetitive self-grooming is a feature of mice. Tcf4^+/− mice show an increased amount of self-grooming compared to wild type mice. To see if NNZ-2591 (cG-2-AllylP) can normalize self-grooming behavior in Tcf4^+/− mice, we carried out a series of studies, as shown in FIG. 3.
The amount of time spent grooming in seconds during a 10-minute test period is shown on the vertical axis, and the animals and treatments are shown on the horizontal axis. Wild type (WT) mice treated with vehicle alone (left column) self-groomed for about 110 sec. […] This difference was not statistically significant. […] This statistically significant finding was completely unexpected in Tcf4^+/− mice.

Tcf4^+/− mice [2] = test: Hind limb force (motor performance); format: in vivo, mouse; parameters: key to Test of Force (Hind Limb): Tukey’s Muliple Comparison Test Summary: **** = p < 0.00001; ns = not significant
Method: as §1
Hind limb force is an important measure of the ability of a mouse to jump away from a predator. However, animals with the Tcf4^+/− mutation have substantially lower ability to jump away from a predator, making this mutation very serious and potentially life threatening. Hind limb force is also considered a surrogate for motor function in humans. To determine if NNZ-2591 (cG-2-AllylP) might provide a helpful treatment for this condition, we carried out a series of studies in which we measured hind limb force.

[3] = Tcf4^+/− + cG-2-AllylP (100 mg/kg) vs Tcf4^+/− + cG-2-AllylP (200 mg/kg)
[4] = Tcf4^+/− + cG-2-AllylP (100 mg/kg) vs WT + cG-2-AllylP (200 mg/kg)
[5] = Tcf4^+/− + vehicle vs Tcf4^+/− + cG-2-AllylP (100 mg/kg)
[6] = Tcf4^+/− + vehicle vs Tcf4^+/− + cG-2-AllylP (200 mg/kg)
[7] = Tcf4^+/− + vehicle vs WT + cG-2-AllylP (100 mg/kg)
[8] = Tcf4^+/− + vehicle vs WT + cG-2-AllylP (200 mg/kg)
[9] = WT + cG-2-AllylP (100 mg/kg) vs Tcf4^+/− + cG-2-AllylP (100 mg/kg)
[10] = WT + cG-2-AllylP (100 mg/kg) vs Tcf4^+/− + cG-2-AllylP (200 mg/kg)
[11] = WT + cG-2-AllylP (100 mg/kg) vs WT + cG-2-AllylP (200 mg/kg)
[12] = WT + cG-2-AllylP (200 mg/kg) vs Tcf4^+/− + cG-2-AllylP (200 mg/kg)
[13] = WT + vehicle vs Tcf4^+/− + cG-2-AllylP (100 mg/kg)
[14] = WT + vehicle vs Tcf4^+/− + cG-2-AllylP (200 mg/kg)
[15] = WT + vehicle vs WT + cG-2-AllylP (100 mg/kg)
[16] = WT + vehicle vs WT + cG-2-AllylP (200 mg/kg)
[17] = WT mice, 100 mg/kg oral BID 6 weeks

C=CC[C@]12CCCN1C(=O)CNC2=O [cG-2-AllylP, (8aS)-Allyl-hexahydropyrrolo[1,2-a]pyrazine-1,4-dione]
Self-Grooming/Repetitive Behavior: Tukey’s Multiple Comparison Test Summary (Tcf4^+/− mice [1]; [3]): ns | Self-Grooming/Repetitive Behavior: Tukey’s Multiple Comparison Test Summary (Tcf4^+/− mice [1]; [4]): ns | Self-Grooming/Repetitive Behavior: Tukey’s Multiple Comparison Test Summary (Tcf4^+/− mice [1]; [5]): **** (**** = p < 0.0001) | Self-Grooming/Repetitive Behavior: Tukey’s Multiple Comparison Test Summary (Tcf4^+/− mice [1]; [6]): **** (**** = p < 0.0001) | Self-Grooming/Repetitive Behavior: Tukey’s Multiple Comparison Test Summary (Tcf4^+/− mice [1]; [7]): **** (**** = p < 0.0001) | Self-Grooming/Repetitive Behavior: Tukey’s Multiple Comparison Test Summary (Tcf4^+/− mice [1]; [8]): **** (**** = p < 0.0001) | Behavior Normalized to WildType Levels: Self-groom (Tcf4^+/− mice [1]; Tcf4^+/− mice, 100 mg/kg): ✓ | Time spent self-grooming during a 10-minute test period (Tcf4^+/− mice [1]; Tcf4^+/− mice, 100 mg/kg oral BID 6 weeks, 100 mg/kg): corrected | Time spent self-grooming during a 10-minute test period (Tcf4^+/− mice [1]; Tcf4^+/− mice, 100 mg/kg oral BID 6 weeks, listed as NNZ-2591, 100 mg/kg): about the same amount of time self-grooming as WT vehicle treated mice | Behavior Normalized to WildType Levels: Self-groom (Tcf4^+/− mice [1]; Tcf4^+/− mice, 200 mg/kg): ✓ | Time spent self-grooming during a 10-minute test period (Tcf4^+/− mice [1]; Tcf4^+/− mice, 200 mg/kg oral BID 6 weeks, 200 mg/kg): corrected | Time spent self-grooming during a 10-minute test period (Tcf4^+/− mice [1]; Tcf4^+/− mice, 200 mg/kg oral BID 6 weeks, listed as NNZ-2591, 200 mg/kg): about the same amount of time self-grooming as WT vehicle treated mice | Self-Grooming/Repetitive Behavior: Tukey’s Multiple Comparison Test Summary (Tcf4^+/− mice [1]; [9]): ns | Self-Grooming/Repetitive Behavior: Tukey’s Multiple Comparison Test Summary (Tcf4^+/− mice [1]; [10]): ns | Self-Grooming/Repetitive Behavior: Tukey’s Multiple Comparison Test Summary (Tcf4^+/− mice [1]; [11]): ns | Self-Grooming/Repetitive Behavior: Tukey’s Multiple Comparison Test Summary (Tcf4^+/− mice [1]; [12]): ns | Self-Grooming/Repetitive Behavior: Tukey’s Multiple Comparison Test Summary (Tcf4^+/− mice [1]; [13]): ns | Self-Grooming/Repetitive Behavior: Tukey’s Multiple Comparison Test Summary (Tcf4^+/− mice [1]; [14]): ns | Self-Grooming/Repetitive Behavior: Tukey’s Multiple Comparison Test Summary (Tcf4^+/− mice [1]; [15]): ns | Self-Grooming/Repetitive Behavior: Tukey’s Multiple Comparison Test Summary (Tcf4^+/− mice [1]; [16]): ns | Time spent self-grooming during a 10-minute test period (Tcf4^+/− mice [1]; [17]): about the same amount of time as did WT mice treated with vehicle alone | Test of Force (Hind Limb): Tukey’s Muliple Comparison Test Summary (Tcf4^+/− mice [2]; [3]): ns | Test of Force (Hind Limb): Tukey’s Muliple Comparison Test Summary (Tcf4^+/− mice [2]; [4]): ns | Test of Force (Hind Limb): Tukey’s Muliple Comparison Test Summary (Tcf4^+/− mice [2]; [5]): **** (**** = p <0.00001) | Test of Force (Hind Limb): Tukey’s Muliple Comparison Test Summary (Tcf4^+/− mice [2]; [6]): **** (**** = p <0.00001) | Test of Force (Hind Limb): Tukey’s Muliple Comparison Test Summary (Tcf4^+/− mice [2]; [7]): **** (**** = p <0.00001) | Test of Force (Hind Limb): Tukey’s Muliple Comparison Test Summary (Tcf4^+/− mice [2]; [8]): **** (**** = p <0.00001) | Behavior Normalized to WildType Levels: Force (Tcf4^+/− mice [2]; Tcf4^+/− mice, 100 mg/kg): ✓ | Hind limb force (Tcf4^+/− mice [2]; Tcf4^+/− mice, 100 mg/kg oral BID 6 weeks): nearly identical to those produced by WT mice | Behavior Normalized to WildType Levels: Force (Tcf4^+/− mice [2]; Tcf4^+/− mice, 200 mg/kg): ✓ | Hind limb force (Tcf4^+/− mice [2]; Tcf4^+/− mice, 200 mg/kg oral BID 6 weeks): nearly identical to those produced by WT mice | Test of Force (Hind Limb): Tukey’s Muliple Comparison Test Summary (Tcf4^+/− mice [2]; [9]): ns | Test of Force (Hind Limb): Tukey’s Muliple Comparison Test Summary (Tcf4^+/− mice [2]; [10]): ns | Test of Force (Hind Limb): Tukey’s Muliple Comparison Test Summary (Tcf4^+/− mice [2]; [11]): ns | Test of Force (Hind Limb): Tukey’s Muliple Comparison Test Summary (Tcf4^+/− mice [2]; [12]): ns | Test of Force (Hind Limb): Tukey’s Muliple Comparison Test Summary (Tcf4^+/− mice [2]; [13]): ns | Test of Force (Hind Limb): Tukey’s Muliple Comparison Test Summary (Tcf4^+/− mice [2]; [14]): ns | Test of Force (Hind Limb): Tukey’s Muliple Comparison Test Summary (Tcf4^+/− mice [2]; [15]): ns | Test of Force (Hind Limb): Tukey’s Muliple Comparison Test Summary (Tcf4^+/− mice [2]; [16]): ns | Hind limb force (Tcf4^+/− mice [2]; [17]): about the same levels of force as vehicle-treated WT mice | Hind limb force (Tcf4^+/− mice [2]; WT mice, 200 mg/kg oral BID 6 weeks): about the same levels of force as vehicle-treated WT mice
